ChEMBL document CHEMBL1201862, “PubChem BioAssay data set” (2004)
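How tested: cells in 96-well plates exposed to compound for 48 hours at five concentrations. GI50 = concentration required for 50% inhibition of growth.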 The source made the active and inactive calls. No stated cut-off is given here; in the data, active = GI50 up to about 1.1 µM and inactive = higher.

Key:
Assay in all cases: inhibition of tumour cell growth, NCI panel, 48 h
K562 = tested on: K562
SK-MEL-28 = tested on: SK-MEL-28
NCI-H23 = tested on: NCI-H23
HCC 2998 = tested on: HCC 2998
EKVX = tested on: EKVX
MDA-N = tested on: MDA-N
NCI/ADR-RES = tested on: NCI/ADR-RES
LOX IMVI = tested on: LOX IMVI
HT-29 = tested on: HT-29
MOLT-4 = tested on: MOLT-4
CCRF-CEM = tested on: CCRF-CEM
ACHN = tested on: ACHN
SF-539 = tested on: SF-539
NCI-H460 = tested on: NCI-H460
M14 = tested on: M14
MDA-MB-435 = tested on: MDA-MB-435
KM12 = tested on: KM12
PC-3 = tested on: PC-3
A498 = tested on: A498
U-251 = tested on: U-251
MDA-MB-231 = tested on: MDA-MB-231
T47D = tested on: T47D
UO-31 = tested on: UO-31
HOP-62 = tested on: HOP-62
SR = tested on: SR
DU-145 = tested on: DU-145
OVCAR-3 = tested on: OVCAR-3
UACC-257 = tested on: UACC-257
A549 = tested on: A549
OVCAR-4 = tested on: OVCAR-4
Malme-3M = tested on: Malme-3M
HL-60 = tested on: HL-60
SF-295 = tested on: SF-295
SN12C = tested on: SN12C
SF-268 = tested on: SF-268
HCT-15 = tested on: HCT-15
UACC-62 = tested on: UACC-62
HCT-116 = tested on: HCT-116
OVCAR-5 = tested on: OVCAR-5
NCI-H226 = tested on: NCI-H226
SNB-19 = tested on: SNB-19
786-0 = tested on: 786-0
RXF 393 = tested on: RXF 393
SK-MEL-5 = tested on: SK-MEL-5
SK-OV-3 = tested on: SK-OV-3
SK-MEL-2 = tested on: SK-MEL-2
SNB-75 = tested on: SNB-75
TK-10 = tested on: TK-10
SW-620 = tested on: SW-620
IGROV-1 = tested on: IGROV-1
COLO 205 = tested on: COLO 205
RPMI-8226 = tested on: RPMI-8226
CAKI-1 = tested on: CAKI-1
MCF7 = tested on: MCF7
OVCAR-8 = tested on: OVCAR-8
NCI-H522 = tested on: NCI-H522
HOP-92 = tested on: HOP-92
Hs-578T = tested on: Hs-578T

SMILES: CN1CCN(C2=NCCO2)CC1
- GI50 (K562): > 100 µM (inactive)
- GI50 (SK-MEL-28): > 100 µM (inactive)
- GI50 (NCI-H23): > 100 µM (inactive)
- GI50 (HCC 2998): > 100 µM (inactive)
- GI50 (EKVX): > 100 µM (inactive)
- GI50 (MDA-N): > 100 µM (inactive)
- GI50 (NCI/ADR-RES): > 100 µM (inactive)
- GI50 (LOX IMVI): > 100 µM (inactive)
- GI50 (HT-29): > 100 µM (inactive)
- GI50 (MOLT-4): > 100 µM (inactive)
- GI50 (CCRF-CEM): > 100 µM (inactive)
- GI50 (ACHN): > 100 µM (inactive)
- GI50 (SF-539): > 100 µM (inactive)
- GI50 (NCI-H460): > 100 µM (inactive)
- GI50 (M14): > 100 µM (inactive)
- GI50 (MDA-MB-435): > 100 µM (inactive)
- GI50 (KM12): > 100 µM (inactive)
- GI50 (PC-3): > 100 µM (inactive)
- GI50 (A498): > 100 µM (inactive)
- GI50 (U-251): > 100 µM (inactive)
- GI50 (MDA-MB-231): > 100 µM (inactive)
- GI50 (T47D): > 100 µM (inactive)
- GI50 (UO-31): > 100 µM (inactive)
- GI50 (HOP-62): > 100 µM (inactive)
- GI50 (SR): > 100 µM (inactive)
- GI50 (DU-145): > 100 µM (inactive)
- GI50 (OVCAR-3): > 100 µM (inactive)
- GI50 (UACC-257): > 100 µM (inactive)
- GI50 (A549): > 100 µM (inactive)
- GI50 (OVCAR-4): > 100 µM (inactive)
- GI50 (Malme-3M): > 100 µM (inactive)
- GI50 (HL-60): > 100 µM (inactive)
- GI50 (SF-295): > 100 µM (inactive)
- GI50 (SN12C): > 100 µM (inactive)
- GI50 (SF-268): > 100 µM (inactive)
- GI50 (HCT-15): > 100 µM
- GI50 (UACC-62): > 100 µM (inactive)
- GI50 (HCT-116): > 100 µM (inactive)
- GI50 (OVCAR-5): > 100 µM (inactive)
- GI50 (NCI-H226): > 100 µM (inactive)
- GI50 (SNB-19): > 100 µM (inactive)
- GI50 (786-0): > 100 µM (inactive)
- GI50 (RXF 393): > 100 µM (inactive)
- GI50 (SK-MEL-5): > 100 µM (inactive)
- GI50 (SK-OV-3): > 100 µM (inactive)
- GI50 (SK-MEL-2): > 100 µM (inactive)
- GI50 (SNB-75): > 100 µM (inactive)
- GI50 (TK-10): > 100 µM (inactive)
- GI50 (SW-620): > 100 µM (inactive)
- GI50 (IGROV-1): > 100 µM (inactive)
- GI50 (COLO 205): > 100 µM (inactive)
- GI50 (RPMI-8226): > 100 µM (inactive)
- GI50 (CAKI-1): > 100 µM (inactive)
- GI50 (MCF7): > 100 µM (inactive)
- GI50 (OVCAR-8): > 100 µM (inactive)
- GI50 (NCI-H522): > 100 µM (inactive)

SMILES: CC(C)OCC(O)COc1cc(=O)oc2ccccc12 (centres undefined)
- GI50 (K562): > 100 µM (inactive)
- GI50 (SK-MEL-28): > 100 µM (inactive)
- GI50 (NCI-H23): > 100 µM (inactive)
- GI50 (HCC 2998): 50.4 µM (inactive)
- GI50 (HOP-92): > 100 µM (inactive)
- GI50 (EKVX): > 100 µM (inactive)
- GI50 (MDA-N): > 100 µM (inactive)
- GI50 (NCI/ADR-RES): > 100 µM (inactive)
- GI50 (LOX IMVI): > 100 µM (inactive)
- GI50 (HT-29): > 100 µM (inactive)
- GI50 (MOLT-4): > 100 µM (inactive)
- GI50 (CCRF-CEM): > 100 µM (inactive)
- GI50 (ACHN): > 100 µM (inactive)
- GI50 (NCI-H460): > 100 µM (inactive)
- GI50 (M14): > 100 µM (inactive)
- GI50 (MDA-MB-435): > 100 µM (inactive)
- GI50 (KM12): > 100 µM (inactive)
- GI50 (PC-3): > 100 µM (inactive)
- GI50 (U-251): > 100 µM (inactive)
- GI50 (MDA-MB-231): > 100 µM (inactive)
- GI50 (T47D): > 100 µM (inactive)
- GI50 (UO-31): > 100 µM (inactive)
- GI50 (HOP-62): > 100 µM (inactive)
- GI50 (SR): > 100 µM (inactive)
- GI50 (DU-145): > 100 µM (inactive)
- GI50 (OVCAR-3): > 100 µM (inactive)
- GI50 (UACC-257): > 100 µM (inactive)
- GI50 (A549): > 100 µM (inactive)
- GI50 (OVCAR-4): > 100 µM (inactive)
- GI50 (Malme-3M): > 100 µM (inactive)
- GI50 (HL-60): > 100 µM (inactive)
- GI50 (SF-295): > 100 µM (inactive)
- GI50 (SN12C): > 100 µM (inactive)
- GI50 (SF-268): > 100 µM (inactive)
- GI50 (HCT-15): > 100 µM
- GI50 (UACC-62): > 100 µM (inactive)
- GI50 (HCT-116): > 100 µM (inactive)
- GI50 (OVCAR-5): > 100 µM (inactive)
- GI50 (SNB-19): > 100 µM (inactive)
- GI50 (Hs-578T): > 100 µM (inactive)
- GI50 (786-0): > 100 µM (inactive)
- GI50 (SK-MEL-5): > 100 µM (inactive)
- GI50 (SK-OV-3): > 100 µM (inactive)
- GI50 (SK-MEL-2): > 100 µM (inactive)
- GI50 (TK-10): > 100 µM (inactive)
- GI50 (SW-620): > 100 µM (inactive)
- GI50 (IGROV-1): > 100 µM (inactive)
- GI50 (COLO 205): > 100 µM (inactive)
- GI50 (RPMI-8226): > 100 µM (inactive)
- GI50 (CAKI-1): > 100 µM (inactive)
- GI50 (MCF7): > 100 µM (inactive)
- GI50 (OVCAR-8): > 100 µM (inactive)
- GI50 (NCI-H522): > 100 µM (inactive)
